Data reported in patent US20040236269A1, “Microsurgical tissue treatment system” (priority 2002, published 2004).

Assay: Delivery of a topical anesthetic through micro-ablated stratum corneum; sensation probed with 20 gauge needle or by pinching
Type: in vivo
Conditions: solution of 4% lidocaine applied for five minutes to approx. 1 cm^2 area ablated by piezoelectric actuator with 60 micron aluminum oxide particles, 10-15 pulses, 20 kHz; probed with 20 gauge needle or pinching
Description: A piezoelectric actuator was fitted with 60 micron aluminum oxide particles fixed to its surface so as to provide an approximate 1 cm^2 treatment area. Ten to fifteen pulses of less than one second duration were applied with force of less than 1 pound to the area and frequency of 20 kHz. […] A solution of 4% lidocaine was applied to the area and incubated for five minutes. The excess lidocaine was wiped off, and a series of probes was made in and around the area of treatment using a 20 gauge needle or by pinching.

CCN(CC)CC(=O)Nc1c(C)cccc1C [lidocaine]
anesthesia (lack of sensation within and in close proximity to the treatment site): significant anesthesia was obtained
